According to publication PMC11084299 (International Journal of Molecular Sciences, 2024):

Legend:
[1] = biological target: T1, Plasmodium falciparum tyrosyl-tRNA synthetase (PfTyrRS) (Plasmodium falciparum, UniProt Q8IAR7); experiment: bio-layer interferometry (Ni-NTA biosensors, immobilized PfTyrRS); supported by ATP hydrolysis inhibition (IC50 […]), TSA and limited proteolysis; format: binding
T1 construct: gene PF3D7_0807900; recombinant PfTyrRS (PF3D7-0807900), C-terminal 10 × His tag, ~47 kDa, homodimer

[2] = biological target: T2, Homo sapiens tyrosyl-tRNA synthetase (HsTyrRS) (Homo sapiens, UniProt P54577); experiment: ATP hydrolysis (consumption) assay, luciferin/luciferase luminescence, purified enzyme; format: biochemical
T2 construct: gene YARS1; recombinant HsTyrRS, C-terminal 10 × His tag, ~64 kDa, homodimer
T2 sequence (P54577 1-528): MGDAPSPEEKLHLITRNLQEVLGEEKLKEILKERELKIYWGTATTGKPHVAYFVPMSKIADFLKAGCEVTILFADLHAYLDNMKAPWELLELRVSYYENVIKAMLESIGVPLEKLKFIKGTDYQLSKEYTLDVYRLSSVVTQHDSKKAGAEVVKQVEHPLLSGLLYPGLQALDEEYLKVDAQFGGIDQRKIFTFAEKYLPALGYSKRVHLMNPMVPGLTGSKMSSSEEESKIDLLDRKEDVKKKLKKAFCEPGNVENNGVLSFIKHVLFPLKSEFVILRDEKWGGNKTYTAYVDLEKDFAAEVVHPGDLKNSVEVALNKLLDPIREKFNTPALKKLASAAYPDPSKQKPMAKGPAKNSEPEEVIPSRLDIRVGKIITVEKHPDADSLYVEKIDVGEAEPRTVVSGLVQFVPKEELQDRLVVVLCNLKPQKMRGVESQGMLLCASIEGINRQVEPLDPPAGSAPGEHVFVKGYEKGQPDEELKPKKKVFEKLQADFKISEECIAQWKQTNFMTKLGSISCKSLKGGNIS

[3] = biological target: the molecule itself; experiment: SEC; Superdex 200 Increase 10/300 GL, final purification step; oligomeric state from the apparent molecular weight at the elution volume

O=C(/C=C/c1ccc(O)c(O)c1)c1ccc(O)c(O)c1O [okanin]
Kd [1]: 290 nM | IC50 [2]: 38.2 ± 2.71 µM

B1: Homo sapiens tyrosyl-tRNA synthetase (enzyme, UniProt P54577 1-528, looked up)
chain: T2 sequence (P54577 1-528)
notes: Tyrosyl-tRNA synthetase, human, in pET28a; about 64 kDa on SDS-PAGE; No tag cleavage is described; also called HsTyrRS; HsTysRS; source: E. coli, purified (Ni column, ion exchange Q HP, size exclusion chromatography)
stoichiometry N [3]: 2

B2: Plasmodium falciparum tyrosyl-tRNA synthetase (enzyme, UniProt Q8IAR7 1-373, looked up)
chain: METTDTKREEQEIEEKKAQEESKIEDVDKILNDILSISSECIQPDELRVKLLLKRKLICYDGFEPSGRMHIAQGLLKSIIVNKLTSNGCTFIFWIADWFAHLNNKMSGDLKKIKKVGSYFIEVWKSCGMNMENVQFLWASEEINKKPNEYWSLVLDISRSFNINRMKRCLKIMGRSEGEENYCSQILYPCMQCADIFFLNVDICQLGIDQRKVNMLAREYCDIKKIKKKPVILSHGMLPGLLEGQEKMSKSDENSAIFMDDSESDVNRKIKKAYCPPNVIENNPIYAYAKSIIFPSYNEFNLVRKEKNGGDKTYYTLQELEHDYVNGFIHPLDLKDNVAMYINKLLQPVRDHFQNNIEAKNLLNEIKKYKVTK
notes: Tyrosyl-tRNA synthetase of Plasmodium falciparum, gene ID PF3D7-0807900, synthesized gene in pET28a; about 47 kDa on SDS-PAGE; No tag cleavage is described; The same protein was later captured on Ni-NTA biosensors for BLI with okanin, so the His tag was probably still present in the gel filtration; also called PfTyrRS; PfTysRS; source: E. coli BL21, purified (Ni-NTA, HiTrap Q HP, Superdex 200 …)
stoichiometry N [3]: 2
